Results on 25 molecules are retold here after patent US20230083885A1, “MODULATORS OF INTEGRATED STRESS RESPONSE PATHWAY” (Praxis Biotech LLC, priority 2021, published 2023).

Assay [1] relates to Chinese hamster ovary (CHO) cells. In words: Protein synthesis assay (puromycin incorporation, Western blot). Format: cell-based. To be noted: Cricetulus griseus, read-out: % Protein synthesis relative to untreated (1 μM test compound). As for the experimental part: Chinese hamster ovary (CHO) cells were maintained at 37° C. and 5% CO2 in Dulbecco's Modified Eagle's Media (DMEM) supplemented with 10% fetal bovine serum, 2 mM L-glutamine, 100 U/ml penicillin, and 100 μg/ml streptomycin. After reaching 80% of confluence, cells were detached and seeded on 6 well plates in complete media, allowed to recover overnight and treated for 2 hours with 1 μM of the test compound (to assess protein synthesis levels in unstressed condition), or for 2 hours with 300 nM Tg in the presence of 1 μM of the test compound (to assess the recovery of protein synthesis in a stressed condition). Cells with Tg alone were used as controls.
After the 2 hours treatments, media were replaced by adding 10 μg/ml puromycin (Sigma Aldrich #P8833) in complete media for 30 min. Media were removed and cells were lysed with SDS-PAGE lysis buffer. Lysates were transferred to 1.5 ml tubes and sonicated for 3 min and total protein amount were quantified using BCA Protein Assay Kit (Pierce). Equal amount of protein (30 μg) was loaded on SDS-PAGE gels.
A HRP-conjugated secondary antibody (Rockland) was employed to detect immune-reactive bands using enhanced chemiluminescence (ECL Western Blotting Substrate, Pierce). Quantification of protein bands was done by densitometry using ImageJ software.
The percentage levels were normalized to the media alone condition, which correspond to 100% protein synthesis. […]
In general terms: In western blotting, separated proteins are transferred to a membrane and probed.

A further assay deals with ATF4. In words: ATF4 expression inhibition assay (ATF4 5'UTR luciferase reporter, thapsigargin-stressed). Format: cell-based. To be noted: Homo sapiens, HEK-293T, read-out: ATF4 inhibition. As for the experimental part:
The ATF4 reporter was prepared by fusing the human full length 5′UTR of ATF4 (NCBI Accession No. BC022088.2) upstream of the firefly luciferase coding sequence lacking the initiator methionine. The fused sequence was cloned into pLenti-EF1a-C-Myc-DDK-IRES-Puro cloning vector (Origen #PS100085) using standard methods.
HEK293T cells carrying the ATF4 luciferase reporter were plated on 96-well plates (Nunc) at 10,000 cells per well. Cells were treated two days after seeding with 100 nM thapsigargin (Tg) (Sigma-Aldrich #T9033) in the presence of different concentrations of selected compounds ranging from 0.1 nM to 10 μM. Cells without treatment or cells treated with Tg alone were used as controls. Assay plates containing cells were incubated for 3 hours at 37° C.
Luciferase reactions were performed using Luciferase Assay System (Promega #E1501) as specified by the manufacturer. Luminescence was read with an integration time of 1 s and a gain of 110 using a Cytation-5 multi-mode microplate reader (BioTek).
(In general: A reporter such as luciferase makes a cellular process visible.)

Where [2] appears, read: unstressed CHO cells (without Tg), 1 μM test compound, 2 hours, media alone = 100%.
Setting [3] is: HEK293T cells carrying ATF4 luciferase reporter, 100 nM thapsigargin, 3 hours.

Read-outs that look alike come from different tables or passages of the source.

`O=C(COc1ccc(Cl)c(F)c1)N[C@H]1CC[C@H](c2nnc([C@@H]3CNc4cc(Cl)ccc4O3)o2)CC1` (single isomer, unassigned) [Compound 42]: the activity at 1 µM in assay [1] (setting [2]) is 79.9%. Besides, the IC50 with ATF4 (setting [3]) was below 10 nM.
As for `O=C(COc1ccc(Cl)c(F)c1)N[C@H]1CC[C@H](c2nnc([C@H]3CNc4cc(Cl)ccc4O3)o2)CC1` (single isomer, unassigned) [Compound 43], in assay [1] (setting [2]), the activity at 1 µM was determined as 86.3%. For the same molecule, the IC50 in the assay with ATF4 (setting [3]) is below 10 nM.
On to `O=C(Nc1ccc2cc(Cl)ccc2n1)[C@H]1CC[C@H](c2nnc([C@@H]3CNc4cc(Cl)ccc4O3)o2)CC1` (single isomer, unassigned) [Compound 245], for which the IC50 in the assay with ATF4 (setting [3]) was 100 to 1000 nM.
Same read-out and setting: under `O=C(Nc1ccc2cc(Cl)ccc2n1)[C@H]1CC[C@H](c2nnc([C@H]3CNc4cc(Cl)ccc4O3)o2)CC1` (single isomer, unassigned) [Compound 246] stands 100 to 1000 nM.
Turning to `O=C(NC[C@H]1CC[C@H](c2nnc(-c3ccc(Cl)cc3)o2)CC1)c1ccc2cc(Cl)ccc2n1` [Compound 1, trans-6-chloro-N-((4-(5-(4-chlorophenyl)-1,3,4-oxadiazol-2-yl)cyclohexyl)methyl)quinoline-2-carboxamide], the activity at 1 µM in assay [1] (CHO, 2 h) worked out at 158%. Besides, the IC50 with ATF4 (3 h) is above 1000 nM.
As to `O=C(NC[C@H]1CC[C@H](c2nnc(-c3ccc(Cl)cc3)o2)CC1)c1cc2cc(Cl)ccc2o1` [Compound 2, trans-5-chloro-N-((4-(5-(4-chlorophenyl)-1,3,4-oxadiazol-2-yl)cyclohexyl)methyl)benzofuran-2-carboxamide], the activity at 1 µM in assay [1] (setting [2]) amounted to 136%. Further, the IC50 in the assay with ATF4 (setting [3]) lay in the range of 100 to 1000 nM.
On to `O=C(COc1ccc(Cl)c(F)c1)NC[C@H]1CC[C@H](c2nnc(-c3ccc(Cl)cc3)o2)CC1` [Compound 3, trans-2-(4-chloro-3-fluorophenoxy)-N-((4-(5-(4-chlorophenyl)-1,3,4-oxadiazol-2-yl)cyclohexyl)methyl)acetamide], for which the activity at 1 µM in assay [1] (setting [2]) was found to be 138%. The IC50 in the assay on ATF4 (setting [3]) lay in the range of 10 to 100 nM.
As to `O=C(NC[C@H]1CC[C@H](c2nnc(-c3ccc(Cl)cc3)o2)CC1)c1ccc(C(F)(F)F)cn1` [Compound 20, trans-N-((4-(5-(4-chlorophenyl)-1,3,4-oxadiazol-2-yl)cyclohexyl)methyl)-5-(trifluoromethyl)picolinamide], in the assay on ATF4 (setting [3]), the IC50 fell in the range of 100 to 1000 nM.
The same measure, in the same setting: under `O=C(NC[C@H]1CC[C@H](c2nnc(-c3ccc(Cl)cc3)o2)CC1)c1ccc(C(F)(F)F)nc1` [Compound 21, trans-N-((4-(5-(4-chlorophenyl)-1,3,4-oxadiazol-2-yl)cyclohexyl)methyl)-6-(trifluoromethyl)nicotinamide] stands 100 to 1000 nM.
Turning to `O=C(Nc1ccc2cc(Cl)ccc2n1)[C@H]1CC[C@H](c2nnc(CO[C@H]3C[C@@H](OC(F)(F)F)C3)o2)CC1` [Compound 38, trans-N-(6-chloroquinolin-2-yl)-4-(5-((cis-3-(trifluoromethoxy)cyclobutoxy)methyl)-1,3,4-oxadiazol-2-yl)cyclohexanecarboxamide], the IC50 with ATF4 (setting [3]) was 100 to 1000 nM.
With `O=C(Nc1nc2cc(Cl)ccc2s1)[C@H]1CC[C@H](c2nnc(CO[C@H]3C[C@@H](OC(F)(F)F)C3)o2)CC1` [Compound 39, trans-N-(5-chlorobenzo[d]thiazol-2-yl)-4-(5-((cis-3-(trifluoromethoxy)cyclobutoxy)methyl)-1,3,4-oxadiazol-2-yl)cyclohexanecarboxamide], the IC50 with ATF4 (setting [3]) is above 1000 nM.
`O=C(Nc1ccc2cc(Cl)ccc2n1)[C@H]1CC[C@H](c2nnc(COc3ccc(Cl)cc3)o2)CC1` [Compound 40, trans-4-(5-((4-chlorophenoxy)methyl)-1,3,4-oxadiazol-2-yl)-N-(6-chloroquinolin-2-yl)cyclohexanecarboxamide]: the IC50 with ATF4 (setting [3]) lay within 10 to 100 nM.
`O=C(Nc1nc2cc(Cl)ccc2o1)[C@H]1CC[C@H](c2nnc(CO[C@H]3C[C@@H](OC(F)(F)F)C3)o2)CC1` [Compound 41, trans-N-(5-chlorobenzo[d]oxazol-2-yl)-4-(5-((cis-3-(trifluoromethoxy)cyclobutoxy)methyl)-1,3,4-oxadiazol-2-yl)cyclohexanecarboxamide]: the IC50 in the assay on ATF4 (3 h) is 100 to 1000 nM.
In the case of `O=C(Nc1ccc2cc(Cl)ccc2n1)C1CCN(c2nnc(-c3ccc(Cl)cc3)o2)CC1` [Compound 49, 1-(5-(4-chlorophenyl)-1,3,4-oxadiazol-2-yl)-N-(6-chloroquinolin-2-yl)piperidine-4-carboxamide], the IC50 in the assay with ATF4 (setting [3]) was 100 to 1000 nM.
Same read-out and setting: then `O=C(Nc1ccc2cc(Cl)ccc2n1)C1CCN(c2nnc([C@H]3C[C@@H](OC(F)(F)F)C3)o2)CC1` [Compound 50, N-(6-chloroquinolin-2-yl)-1-(5-(cis-3-(trifluoromethoxy)cyclobutyl)-1,3,4-oxadiazol-2-yl)piperidine-4-carboxamide], with 100 to 1000 nM; and `O=C(NCc1cc2cc(Cl)ccc2o1)[C@H]1CC[C@H](c2nnc(-c3ccc(Cl)cc3)o2)CC1` [Compound 51, trans-N-((5-chlorobenzofuran-2-yl)methyl)-4-(5-(4-chlorophenyl)-1,3,4-oxadiazol-2-yl)cyclohexanecarboxamide], with 100 to 1000 nM; and `O=C(Nc1nc2cc(Cl)ccc2s1)[C@H]1CC[C@H](c2nnc([C@H]3C[C@@H](OC(F)(F)F)C3)o2)CC1` [Compound 52, trans-N-(5-chlorobenzo[d]thiazol-2-yl)-4-(5-(cis-3-(trifluoromethoxy)cyclobutyl)-1,3,4-oxadiazol-2-yl)cyclohexanecarboxamide], with 10 to 100 nM.
As for `O=C(NCc1cc2cc(Cl)ccc2o1)[C@H]1CC[C@H](c2nnc(COc3ccc(Cl)cc3)o2)CC1` [Compound 53, trans-N-((5-chlorobenzofuran-2-yl)methyl)-4-(5-((4-chlorophenoxy)methyl)-1,3,4-oxadiazol-2-yl)cyclohexanecarboxamide], the IC50 with ATF4 (setting [3]) fell in the range of 100 to 1000 nM.
Consider `O=C(NCc1cc2cc(Cl)ccc2o1)[C@H]1CC[C@H](c2nnc(-c3cc4cc(Cl)ccc4o3)o2)CC1` [Compound 54, trans-4-(5-(5-chlorobenzofuran-2-yl)-1,3,4-oxadiazol-2-yl)-N-((5-chlorobenzofuran-2-yl)methyl)cyclohexanecarboxamide], for which the IC50 in the assay with ATF4 (setting [3]) was 100 to 1000 nM.
With `O=C(Nc1nc2cc(Cl)ccc2o1)[C@H]1CC[C@H](c2nnc([C@H]3C[C@@H](OC(F)(F)F)C3)o2)CC1` [Compound 241, trans-N-(5-chlorobenzo[d]oxazol-2-yl)-4-(5-(3-(cis-trifluoromethoxy)cyclobutyl)-1,3,4-oxadiazol-2-yl)cyclohexanecarboxamide], the IC50 in the assay with ATF4 (setting [3]) is 100 to 1000 nM.
Still for that read-out and setting: then `O=C(Nc1ccc2cc(Cl)ccc2n1)[C@H]1CC[C@H](c2nnc([C@H]3C[C@@H](C(F)(F)F)C3)o2)CC1` [Compound 248, trans-N-(6-chloroquinolin-2-yl)-4-(5-(cis-3-(trifluoromethyl)cyclobutyl)-1,3,4-oxadiazol-2-yl)cyclohexanecarboxamide], with 100 to 1000 nM.
As to `O=C(Nc1ccc2cc(Cl)ccc2n1)[C@H]1CC[C@@H](c2cnn(-c3ccc(Cl)cc3)c2)CC1` [Compound 249, cis-4-(1-(4-chlorophenyl)-1H-pyrazol-4-yl)-N-(6-chloroquinolin-2-yl)cyclohexanecarboxamide], in the assay on ATF4 (setting [3]), the IC50 lay in the range of 100 to 1000 nM.
Regarding `O=C(NN1CCC(c2nnc([C@H]3C[C@@H](OC(F)(F)F)C3)o2)CC1)c1cc2cc(Cl)ccc2o1` [Compound 251, 5-chloro-N-(4-(5-(cis-3-(trifluoromethoxy)cyclobutyl)-1,3,4-oxadiazol-2-yl)piperidin-1-yl)benzofuran-2-carboxamide], in the assay with ATF4 (setting [3]), the IC50 was below 10 nM.
Regarding `O=C(NN1CCC(c2nnc([C@H]3C[C@@H](OC(F)(F)F)C3)o2)CC1)C1CNc2cc(Cl)ccc2O1` (stereo partly drawn) [Compound 252, 6-chloro-N-(4-(5-((1s,3s)-3-(trifluoromethoxy)cyclobutyl)-1,3,4-oxadiazol-2-yl)piperidin-1-yl)-3,4-dihydro-2H-benzo[b][1,4]oxazine-2-carboxamide], in the assay on ATF4 (setting [3]), the IC50 is below 10 nM.
As for `O=C(NC[C@H]1CC[C@H](c2nnc(-c3ccc(Cl)cc3)o2)CC1)[C@H]1C[C@@H](O)c2cc(Cl)ccc2O1` [Compound 253, (2R,4R)-6-chloro-N-((trans-4-(5-(4-chlorophenyl)-1,3,4-oxadiazol-2-yl)cyclohexyl)methyl)-4-hydroxychroman-2-carboxamide], the IC50 with ATF4 (setting [3]) was 100 to 1000 nM.
